{"source": "patent US10420758B2", "about": "“Indolinyl-sulfonamide inhibitors of tankyrase and methods of use thereof” (The Board of Regents of the University of Texas System, priority 2015, dated 2019)", "test_in_all_cases": "PARP profiling, parsylation of immobilized histone", "format_in_all_cases": "biochemical", "key": {"[1]": {"biological_target": "T1, PARP10 (Homo sapiens, UniProt Q53GL7)", "T1 sequence (Q53GL7 1-1025)": "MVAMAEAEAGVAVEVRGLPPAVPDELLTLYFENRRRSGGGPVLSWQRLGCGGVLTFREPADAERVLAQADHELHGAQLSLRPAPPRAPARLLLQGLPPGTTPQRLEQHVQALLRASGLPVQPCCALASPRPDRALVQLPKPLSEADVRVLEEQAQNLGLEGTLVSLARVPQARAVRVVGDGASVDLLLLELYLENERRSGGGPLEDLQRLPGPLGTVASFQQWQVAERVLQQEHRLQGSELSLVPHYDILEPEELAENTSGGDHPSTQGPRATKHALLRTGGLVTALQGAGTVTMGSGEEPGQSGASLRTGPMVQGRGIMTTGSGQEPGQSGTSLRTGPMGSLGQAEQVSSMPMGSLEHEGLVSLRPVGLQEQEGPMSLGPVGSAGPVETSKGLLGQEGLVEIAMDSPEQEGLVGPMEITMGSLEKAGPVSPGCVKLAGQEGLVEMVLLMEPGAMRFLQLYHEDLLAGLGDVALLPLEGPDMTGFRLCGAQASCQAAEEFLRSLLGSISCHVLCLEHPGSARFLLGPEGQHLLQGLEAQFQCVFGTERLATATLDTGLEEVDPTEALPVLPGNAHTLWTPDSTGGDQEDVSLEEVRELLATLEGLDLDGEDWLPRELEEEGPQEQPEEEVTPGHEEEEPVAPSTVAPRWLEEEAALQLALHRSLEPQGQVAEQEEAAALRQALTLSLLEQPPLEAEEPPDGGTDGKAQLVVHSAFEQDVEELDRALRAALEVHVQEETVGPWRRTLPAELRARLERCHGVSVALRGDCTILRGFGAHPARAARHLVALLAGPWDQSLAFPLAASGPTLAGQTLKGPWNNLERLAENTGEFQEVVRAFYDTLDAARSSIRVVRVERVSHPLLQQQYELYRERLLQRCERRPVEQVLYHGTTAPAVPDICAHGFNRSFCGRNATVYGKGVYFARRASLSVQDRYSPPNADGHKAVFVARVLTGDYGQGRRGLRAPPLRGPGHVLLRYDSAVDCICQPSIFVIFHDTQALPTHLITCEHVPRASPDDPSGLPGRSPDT", "experimental": "(§1) Performed by BPS Bioscience Inc., San Diego by following the BPS PARP or TNKS assay kit protocols. The enzymatic reactions were conducted in duplicate at room temperature for 1 hr in a 96 well plate coated with histone substrate. […] of reaction buffer (Tris.HCl, pH 8.0) contains NAD^+, biotinylated NAD^+, activated DNA, recombinant PARP enzyme and 10 μM of the test compound. […] After enzymatic reactions, 50 μL of Streptavidin-horseradish peroxidase was added to each well and the plate was incubated at room temperature for an additional 30 min. 100 μL of developer reagents were added to wells and luminescence was measured using a BioTek Synergy™ 2 microplate reader."}, "[2]": {"biological_target": "T2, PARP3 (Homo sapiens, UniProt Q9Y6F1)", "T2 sequence (Q9Y6F1 1-533)": "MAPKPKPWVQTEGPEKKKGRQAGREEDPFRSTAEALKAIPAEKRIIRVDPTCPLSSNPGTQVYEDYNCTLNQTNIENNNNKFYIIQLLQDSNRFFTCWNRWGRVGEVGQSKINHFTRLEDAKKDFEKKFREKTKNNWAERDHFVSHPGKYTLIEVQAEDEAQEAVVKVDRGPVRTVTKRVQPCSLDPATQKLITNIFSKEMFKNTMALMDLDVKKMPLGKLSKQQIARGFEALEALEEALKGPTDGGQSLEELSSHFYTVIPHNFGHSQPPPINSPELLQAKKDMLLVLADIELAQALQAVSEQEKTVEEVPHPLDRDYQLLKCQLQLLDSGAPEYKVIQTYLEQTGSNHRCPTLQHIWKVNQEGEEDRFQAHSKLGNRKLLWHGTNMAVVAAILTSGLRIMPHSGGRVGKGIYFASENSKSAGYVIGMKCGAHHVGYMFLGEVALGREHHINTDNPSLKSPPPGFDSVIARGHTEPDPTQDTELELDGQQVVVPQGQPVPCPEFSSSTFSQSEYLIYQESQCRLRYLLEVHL", "experimental": "as §1"}, "[3]": {"biological_target": "T3, PARP8 (Homo sapiens, UniProt Q8N3A8)", "T3 sequence (Q8N3A8 1-854)": "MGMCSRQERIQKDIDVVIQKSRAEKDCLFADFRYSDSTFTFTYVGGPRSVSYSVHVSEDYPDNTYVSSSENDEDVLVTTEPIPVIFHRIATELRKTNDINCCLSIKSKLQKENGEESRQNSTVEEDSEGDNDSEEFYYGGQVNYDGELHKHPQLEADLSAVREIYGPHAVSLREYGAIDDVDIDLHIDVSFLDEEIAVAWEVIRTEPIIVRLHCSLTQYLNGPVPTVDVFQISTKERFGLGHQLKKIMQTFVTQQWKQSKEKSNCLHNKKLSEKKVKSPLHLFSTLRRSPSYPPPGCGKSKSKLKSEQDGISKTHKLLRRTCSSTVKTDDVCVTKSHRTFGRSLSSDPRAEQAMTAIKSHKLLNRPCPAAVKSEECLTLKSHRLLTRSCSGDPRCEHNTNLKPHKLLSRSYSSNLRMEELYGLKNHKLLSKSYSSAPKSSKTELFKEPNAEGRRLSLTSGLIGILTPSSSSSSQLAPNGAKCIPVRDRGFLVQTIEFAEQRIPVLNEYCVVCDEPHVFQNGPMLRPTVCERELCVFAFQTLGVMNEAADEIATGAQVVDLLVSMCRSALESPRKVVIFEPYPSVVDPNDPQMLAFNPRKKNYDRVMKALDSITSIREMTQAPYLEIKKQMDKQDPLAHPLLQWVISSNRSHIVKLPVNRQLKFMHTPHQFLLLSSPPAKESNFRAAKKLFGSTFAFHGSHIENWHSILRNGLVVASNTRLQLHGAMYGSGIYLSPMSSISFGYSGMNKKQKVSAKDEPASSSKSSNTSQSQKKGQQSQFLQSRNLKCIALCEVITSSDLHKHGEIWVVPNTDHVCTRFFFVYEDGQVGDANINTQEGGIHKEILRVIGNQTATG", "experimental": "as §1"}}, "data": [{"smiles": "O=C(c1cc(Cc2n[nH]c(=O)c3ccccc23)ccc1F)N1CCN(C(=O)C2CC2)CC1", "note": "[Olaparib]", "values": [{"measurement": "inhibition at 0.02 µM", "setting": "[1]", "value": 99, "unit": "%"}, {"measurement": "inhibition at 0.02 µM", "setting": "[2]", "value": 100, "unit": "%"}, {"measurement": "inhibition at 0.02 µM", "setting": "[3]", "value": 96, "unit": "%"}]}, {"smiles": "CCN(C(=O)C1CCN(S(=O)(=O)c2cc3c(cc2Br)CCN3C(C)=O)CC1)c1cccc(C)c1", "note": "[IWR-8]", "values": [{"measurement": "inhibition at 10 µM", "setting": "[1]; IWR compounds 10 μM", "value": 9, "unit": "%"}, {"measurement": "inhibition at 10 µM", "setting": "[2]", "value": 11, "unit": "%"}, {"measurement": "inhibition at 10 µM", "setting": "[3]; IWR compounds 10 μM", "value": 0, "unit": "%"}]}, {"smiles": "O=C(Nc1cccc2cccnc12)c1ccc(N2C(=O)[C@@H]3[C@H](C2=O)[C@@H]2C=C[C@H]3C2)cc1", "note": "[IWR-1]", "values": [{"measurement": "% inhibition", "setting": "[1]; IWR compounds 10 μM", "value": 18, "unit": "%"}, {"measurement": "% inhibition", "setting": "[2]; IWR compounds 10 μM", "value": 6, "unit": "%"}, {"measurement": "% inhibition", "setting": "[3]; IWR compounds 10 μM", "value": 1, "unit": "%"}]}]}
